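Protocol summary: plate cells (96-well), add compound at 5 concentrations, incubate 48 h, interpolate endpoints linearly. Here, GI50 denotes the concentration required for 50% inhibition of growth. Definition used: TGI = concentration required for complete inhibition of growth.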
Tests used:
Assay in all cases: NCI anticancer screen, dose series, 48 h
[1] = test system: ACHN renal
[2] = test system: HCT-116 colon
[3] = test system: HCT-15 colon
[4] = test system: MDA-MB-435
[5] = test system: NCI-H23 lung
[6] = test system: SR leukemia
[7] = test system: TK-10 renal
[8] = test system: U251 CNS
[9] = test system: UO-31 renal
[10] = test system: HL-60(TB) leukemia

With `Oc1ccccc1/C=N/N1C(=S)N(C23CC4CC(CC(C4)C2)C3)C(=Nc2ccccc2)C1=Nc1ccccc1` the TGI [1] was > 100 µM, the TGI [2] was > 100 µM and the TGI [3] was > 100 µM. The TGI [4] was > 100 µM, the TGI [5] was > 100 µM and the TGI [6] was > 100 µM. For the same molecule, the TGI [7] was > 100 µM, the TGI [8] was > 100 µM and the TGI [9] was > 100 µM.
In the case of `C=C1[C@@H]2CCC3[C@]4(C)C(CC[C@@]5(C)C(=O)O[C@H](O)[C@@H]45)[C@H](O)[C@]3(C2)[C@H]1OC1OC(CO)C(O)C(O)C1O` (stereo partly specified), the TGI [1] was > 50 µM, the TGI [2] was > 50 µM and the TGI [3] was > 50 µM. For the same molecule, the TGI [10] was > 50 µM, the TGI [5] was > 50 µM and the TGI [7] was > 50 µM. For the same molecule, the TGI [8] was > 50 µM and the TGI [9] was > 50 µM.
`Cc1nc2c(=O)n(-c3ccccc3)c(=O)n(-c3ccccc3)c2o1` was tested, and the TGI [1] was > 100 µM, the TGI [2] was > 100 µM and the TGI [3] was > 100 µM. For the same molecule, the TGI [4] was > 100 µM, the TGI [5] was > 100 µM and the TGI [6] was > 100 µM. The TGI [7] was > 100 µM, the TGI [8] was > 100 µM and the TGI [9] was > 100 µM.
`c1cncc(CSc2nc3ccccc3nc2-c2cccs2)c1` was tested, and the TGI [1] was > 100 µM, the TGI [2] was > 100 µM and the TGI [3] was > 100 µM. For the same molecule, the TGI [10] was 47.9 µM, the TGI [5] was > 100 µM and the TGI [6] was > 100 µM. The TGI [7] was > 100 µM and the TGI [9] was > 100 µM.
For `CC(C)=CCC[C@@H](C)C1=C(Nc2ccccc2F)C(O)=C(C)C(=O)C1=O`, the TGI [1] was 14.3 µM, the TGI [2] was > 35.7 µM and the TGI [3] was > 70.6 µM. The TGI [4] was > 100 µM, the TGI [5] was 36.1 µM and the TGI [6] was > 100 µM. The TGI [7] was > 100 µM, the TGI [8] was > 31.6 µM and the TGI [9] was 25.2 µM.
With `C[As+](C)(c1ccc(Br)c([N+](=O)[O-])c1)c1ccc(Br)c([N+](=O)[O-])c1.O=[N+]([O-])O` the TGI [1] was > 100 µM, the TGI [2] was > 100 µM and the TGI [3] was > 100 µM. The TGI [4] was > 100 µM, the TGI [5] was > 100 µM and the TGI [6] was > 100 µM. For the same molecule, the TGI [7] was > 100 µM, the TGI [8] was > 100 µM and the TGI [9] was > 100 µM.
`Cc1cc(-c2ccccc2)nc2oc(=O)n(C)c12` was tested, and the TGI [1] was > 100 µM, the TGI [2] was > 100 µM and the TGI [3] was > 100 µM. The TGI [10] was > 100 µM, the TGI [4] was > 100 µM and the TGI [5] was > 100 µM. The TGI [7] was > 100 µM, the TGI [8] was > 100 µM and the TGI [9] was > 100 µM.
For `CCOC(=O)c1c(SCc2cc(=O)[nH]c(=O)[nH]2)n(-c2ccccc2)c(=S)n(-c2ccccc2)c1=O`, the TGI [1] was > 100 µM, the TGI [2] was > 100 µM and the TGI [3] was > 100 µM. The TGI [4] was > 100 µM, the TGI [7] was > 100 µM and the TGI [8] was > 100 µM. The TGI [9] was > 100 µM.
`C=CN(C=C)C(=O)Cn1cc(-c2ccccc2)nn1` was tested, and the TGI [1] was > 100 µM, the TGI [2] was > 100 µM and the TGI [3] was > 100 µM. For the same molecule, the TGI [10] was > 100 µM, the TGI [4] was > 100 µM and the TGI [5] was > 100 µM. For the same molecule, the TGI [6] was > 100 µM, the TGI [7] was > 100 µM and the TGI [8] was > 100 µM.
In the case of `N#Cc1c(-c2ccc([N+](=O)[O-])cc2)c(C#N)c(=O)n(NS(=O)(=O)c2ccccc2)c1O`, the TGI [1] was > 100 µM, the TGI [2] was > 100 µM and the TGI [3] was > 100 µM. The TGI [10] was > 100 µM, the TGI [4] was > 100 µM and the TGI [7] was > 100 µM. The TGI [8] was > 100 µM.
For `COc1ccc([C@]23CCC4(OCC(C)(C)CO4)[C@H]4CON(O[C@H](O[C@@H]5CCCCC5C(C)(C)c5ccccc5)C2)[C@@H]43)cc1OC` (stereo partly specified), the TGI [2] was > 100 µM, the TGI [3] was > 100 µM and the TGI [10] was 44.4 µM. The TGI [4] was > 100 µM, the TGI [5] was > 100 µM and the TGI [6] was 49.4 µM. The TGI [7] was > 100 µM, the TGI [8] was > 100 µM and the TGI [9] was > 100 µM.
In the case of `CCCCNC(=O)Cn1c2ccc(Br)cc2c2nc3ccccc3nc21`, the TGI [1] was > 100 µM, the TGI [2] was > 100 µM and the TGI [4] was > 100 µM. The TGI [5] was > 100 µM, the TGI [6] was > 100 µM and the TGI [7] was > 100 µM. The TGI [8] was > 100 µM and the TGI [9] was > 100 µM.
With `CCC1(CC)C(=O)N(C(=O)c2cc(OC)c(OC)c(OC)c2)N(C(=O)c2cc(OC)c(OC)c(OC)c2)C1=O` the TGI [1] was > 50 µM, the TGI [2] was > 50 µM and the TGI [3] was > 50 µM. The TGI [10] was > 50 µM, the TGI [4] was > 50 µM and the TGI [5] was > 50 µM. For the same molecule, the TGI [7] was > 50 µM, the TGI [8] was > 50 µM and the TGI [9] was > 50 µM.
In the case of `O=c1c2cc([N+](=O)[O-])ccc2oc2nc3n(c(=O)c12)CCCS3`, the TGI [1] was > 100 µM, the TGI [2] was > 100 µM and the TGI [3] was > 100 µM. The TGI [4] was > 100 µM, the TGI [5] was > 100 µM and the TGI [6] was > 100 µM. For the same molecule, the TGI [7] was > 100 µM, the TGI [8] was > 100 µM and the TGI [9] was > 100 µM.
`O=C1c2cc3c(cc2-c2c1c1ccc(Cl)cc1c(=O)n2CCCn1ccnc1)OCO3` was tested, and the GI50 [1] was < 0.01 µM, the TGI [1] was 1.09 µM and the GI50 [2] was < 0.01 µM. The TGI [2] was 11 µM, the GI50 [3] was 0.0431 µM and the TGI [3] was > 100 µM. The GI50 [10] was < 0.01 µM, the TGI [10] was 1.93 µM and the GI50 [5] was < 0.01 µM. The TGI [5] was 0.317 µM, the GI50 [6] was < 0.01 µM and the TGI [6] was 0.0677 µM. For the same molecule, the GI50 [7] was 0.54 µM, the TGI [7] was > 100 µM and the GI50 [8] was < 0.01 µM. For the same molecule, the TGI [8] was 11.3 µM, the GI50 [9] was < 0.01 µM and the TGI [9] was > 100 µM.
For `CSc1ccc(/C=C2\N=C(c3ccccc3)N(c3nc4cc(Cl)c(F)cc4s3)C2=O)cc1`, the TGI [1] was > 100 µM, the TGI [2] was > 100 µM and the TGI [3] was > 100 µM. For the same molecule, the TGI [10] was > 100 µM, the TGI [4] was > 100 µM and the TGI [6] was > 100 µM. For the same molecule, the TGI [7] was > 100 µM, the TGI [8] was 41.7 µM and the TGI [9] was > 100 µM.

Source: PubChem BioAssay (NCI)
